assay: Human HepG2 cell viability assay in 384 well format; type: toxicity, cell-based; design: dose 125 nL, time 70.5 hour; concentration not given beside the values; details: HepG2 cells, read-out: Inhibition

Row | SMILES | cytotoxicity at 70.5 h [%]
1 | CC(C)Cc1nc(CN2CCC(N3CCN(C)C3=O)CC2)no1 | -1.18
2 | O=C(NCc1ccccn1)c1cncc(C2CCCN2)n1 (configuration not stated) | 22.2
3 | COc1cccc(CN(C)C(=O)CN2CCN(c3nccs3)CC2)c1 | -9.6
4 | CN(C)C(=O)c1csc(-c2ccoc2)n1 | 27.9
5 | COCCn1ccc(=O)c(OCC(=O)Nc2cccc(C(C)=O)c2)c1C | -4.4
6 | CC(C)c1nc(CNC(C(=O)N2CCOCC2)C(C)C)no1 (configuration not stated) | -5.23
7 | Cc1nnc(SCC(=O)NCc2ccc3c(c2)CCC(=O)N3)n1C | -3
8 | CN(CCNc1ncc2c(n1)CCN2c1ccccc1)S(C)(=O)=O | -9.7
9 | Cc1nccn1-c1cccc(C2CCCN(C3CCCC3)C2)n1 (configuration not stated) | -4.43
10 | O=C(N1CCOCC1)N1CCCC(c2ncncc2-c2ccncc2)C1 (configuration not stated) | -9.55
11 | NC(=O)CSc1nccc(-c2ccc3c(c2)OCO3)n1 | -2.27
12 | OCC(O)CSCc1nnc(-c2cccc(F)c2)o1 (configuration not stated) | -14.7
13 | CCS(=O)(=O)N1CCc2c(cccc2NC(=O)NCCOC)C1 | -1.31
14 | O=C(CN1CCCC1Cn1cccn1)NC1CCN(C2CC2)CC1 (configuration not stated) | -2.29
15 | O=C(NCCC(=O)N1CCCc2ccccc21)c1ccc(F)cc1F | -14.2
16 | CC1(C)CCC(CC(=O)O)c2ccccc21 (configuration not stated) | -3.28
17 | CC(C)Oc1ncccc1CNC(=O)N1CCC(C(N)=O)C1 (configuration not stated) | -12.5
18 | O=C(Nc1nccs1)NC1CCN(Cc2ccccc2)CC1 | -15.7
19 | O=C(NC1CCCC1)c1cc(Cn2cnc3ccccc32)on1 | -1.14

Row | SMILES | cytotoxicity at 70.5 h [%]
20 | Cc1ncc2c(n1)CN(Cc1nc(-c3ccsc3)no1)CC2 | -21.5
21 | Cn1cc(Br)c(=O)c(NS(=O)(=O)c2ccc(F)cc2)c1 | 16.4
22 | c1cnc(N2CCCC(c3cc4cccnc4[nH]3)C2)nc1 (configuration not stated) | -8.49
23 | Cc1nn(C)cc1CN1CCCCCC1c1ccc(Cl)cc1 (configuration not stated) | 6.75
24 | Cc1nc(NC2CCN(S(=O)(=O)c3ccccc3)CC2)[nH]c(=O)c1C | -9.46
25 | COCCN1CCCC(C)(c2cc(O)[nH]n2)C1 (configuration not stated) | 1.15
26 | O=C(c1ccc2[nH]cnc2c1)N1CCC(COc2ccccn2)CC1 | -5.85
27 | Cc1nc(CN2C[C@@H](CN3CCOCC3)[C@@H](CO)C2)c2ccccn12 | 16.5
28 | CC(C)c1cc(=O)[nH]c(-c2ccccc2CN2CCCCCC2)n1 | -13.2
29 | CC(=O)NC(C)C(=O)Nc1ccc(OCc2cccc(F)c2)cc1C (configuration not stated) | -9.98
30 | CN1CCN(C2CCN(C(C(N)=O)c3ccccc3)CC2)C1=O (configuration not stated) | -5.22
31 | CCCc1nnc(NC(C)c2ccc(F)cc2)o1 (configuration not stated) | -8.69
32 | CC(C)NC(=O)N1CCn2c(nnc2C2CCCN2)C1 (configuration not stated) | -9.64
33 | CCc1nc2ccccc2c(=O)n1CC1(O)CCN(C(=O)C(C)C)CC1 | -8.49
34 | Cc1cc2n(n1)CC(CNC1CCN(Cc3ccccn3)CC1)CN2 (configuration not stated) | -6.35
35 | CC1(C(=O)NCc2cccc(C(F)(F)F)c2)CCOCC1 | -5.33
36 | CCOCC1c2c(cnn2CC2CC2)CCN1C(=O)c1ccncn1 (configuration not stated) | 20.9
37 | CC(=O)N1CCc2c(nc(N(C)C)nc2NCCCn2ccnc2C)C1 | -4.2
38 | Cn1cc(C(=O)N2CCCC(c3ncc[nH]3)C2)cn1 (configuration not stated) | -7.17

Row | SMILES | cytotoxicity at 70.5 h [%]
39 | CC(=O)Nc1ccc(Oc2ccc(CN3CCCC3)cc2F)cc1 | -3.88
40 | COc1c(C)cnc(CN2CCCCC2Cn2nc(C)nc2C)c1C (configuration not stated) | 16.8
41 | CN(C)c1ccc2c(c1)CN(C(=O)c1cnccn1)C2c1cnco1 (configuration not stated) | 22.8
42 | Cn1nc(C2CCCN2)c2c(C(=O)NC3CC3)cc(C3CC3)nc21 (configuration not stated) | 20
43 | COc1ccc(-n2cc(CCO)cn2)cc1C(N)=O | -14.7
44 | Cc1ccc(C2CCCN(S(=O)(=O)N3CCOCC3)C2)nc1 (configuration not stated) | -4.54
45 | N#Cc1ccc(N2CCCC2Cn2cccn2)nc1 (configuration not stated) | -8.46
46 | Cc1nn(CCC#N)c(C)c1[C@@H]1C=C[C@@H](NCc2ccc(F)cc2)C1 | -0.333
47 | Cc1cccn2c(=O)cc(CN3CCCC3Cn3cccn3)nc12 (configuration not stated) | -1.74
48 | O=C(c1ccc[nH]1)N1CCO[C@]2(CCC[C@@H]2COc2cccnc2)C1 | -2.32
49 | Cc1ncccc1CNCC1CCN(CC(C)O)CC1 (configuration not stated) | -4.39
50 | CS(=O)(=O)N1CCC(NC(=O)COc2ccccc2Cl)CC1 | -3.89
51 | O=C(C(c1ccccc1)S(=O)(=O)c1ccccn1)N1CCCC1 (configuration not stated) | -2.5
52 | CC(=O)Nc1c(C)noc1/C=C\c1ccc(C)c(S(=O)(=O)NC2CC2)c1 | -6.84
53 | CCN(Cc1ccncc1)C(=O)c1cc(C)c(C)c(S(N)(=O)=O)c1 | -2.98
54 | Nc1nc2c(c(N3CCCC(CN4CCCC4=O)C3)n1)CCNCC2 (configuration not stated) | -5.58
55 | Cc1nc(C2CCCN2CCOCC2CC2)no1 (configuration not stated) | -11.1
56 | C[C@H]1C[C@H]2CN(C(=O)c3ccncn3)CC[C@H]2O1 | -0.543
57 | CNC(=O)C1CCC2(CCNCC2)C1 (configuration not stated) | -3.71

— ChEMBL document CHEMBL3507680, “University of Dundee, Gates Library screen for HepG2 cell viability”
